# Assay results reported in US20080109040A1, “METHOD OF TREATING ARRHYTHMIAS” (priority 2002, published 2008).
# What was measured:
# [1] = test system: guinea pig isolated heart; experiment: K-H buffer perfused guinea pig isolated heart: MAP duration, EADs and VT; details: for Effect on ATXII-induced EADs and MAP prolongation: ranolazine 10 μM; for Decrease of MAPS90: ranolazine 10 μmol/L; for Effect on ATXII-induced EADs and VT: ranolazine 5, 10 and 30 μM in the presence of ATXII
# Excerpt: To study the effect of ranolazine on ATXII induced MAP (monophasic action potential) duration prolongation, EADs and ventricular tachyarrhythmia (VT), the K—H buffer perfused guinea pig isolated heart model was used.
# Multiple EADs and sustained depolarizations were frequently observed.
# [2] = Solubility of ranolazine in aqueous solutions as a function of pH; type: physicochemical
# Procedure: In the following examples solutions of ranolazine in water or solutions with a pH above 6 are made up of ranolazine dihydrochloride. In the discussion portions of the following examples, concentrations of ranolazine found as a result of experiments are calculated as ranolazine free base.
# [3] = test system: arterially perfused canine left ventricular wedge preparation; experiment: Action potential and ECG studies in arterially-perfused canine left ventricular wedge preparations; design: APD90 ± SE, M region / TDR / APD50 ± SE, M region / QTend: unit not given beside the values; details: for APD50 ± SE, Epicardium / APD50 ± SE, M region / APD90 ± SE, Epicardium / APD90 ± SE, M region / QTend / TDR / Tpeak-Tend: BCL = 2000; for Ranolazine-induced Torsade de Pointes, Spontaneous / Ranolazine-induced Torsade de Pointes, Stimulation-induced: ranolazine 1-100 μM
# Procedure: Transmural left ventricular wedges with dimensions of approximately 12 mm×35 mm×12 mm were dissected from the mid-to-basal anterior region of the left ventricular wall and a diagonal branch of the left anterior descending coronary artery was cannulated to deliver the perfusate (Tyrode's solution). The composition of the Tyrode's solution was (in mM): […] A separate set of experiments were performed using Tyrode's solution containing 2 mM KCl. Transmembrane action potentials were recorded from epicardial (EPI) and Subendocardial regions (M) using floating microelectrodes. A transmural pseudo-electrocardiogram (ECG) was recorded using two K-Agar electrodes (1.1 mm, i.d.) placed at approx. 1 cm. from the epicardial (+) and endocardial (−) surfaces of the preparation and along the same axis as the transmembrane recordings. […] A constant flow rate was set before ischemia to reach a perfusion pressure of 40-50 mmHg. The temperature was maintained at 37±0.5° C. by heating the perfusate and a contiguous water-chamber that surrounded the tissue-chamber with the same heater/circulating bath. The top-uncovered part of the tissue-chamber was covered in each experiment to 75% of its surface with plastic sheets to further prevent heat loss; the remainder 25% was kept uncovered to position and maneuver the ECG electrodes and the floating microelectrodes. The preparations were fully immersed in the extracellular solution throughout the course of the experiment. The QT interval was defined as the time interval between the initial deflection of the QRS complex and the point at which a tangent drawn to the steepest portion of the terminal part of the T wave crossed the isoelectric line. Experimental Series 1: […] [K^+]o=4 mM. a. Steady-state stimulation: […] b. Programmed electrical stimulation (PES): Premature stimulation was applied to the epicardial surface before and after each concentration of drug in an attempt to induce arrhythmias. Single pulses (S2) were delivered once after every fifth or tenth basic beat (S1) at cycle lengths of 2000 msec. […] Experimental Series 2: […] [K^+]o=2 mM.
smiles,measurement,setting,value
"COc1ccccc1OCC(O)CN1CCN(CC(=O)Nc2c(C)cccc2C)CC1 (racemic) [ranolazine, N-(2,6-dimethylphenyl)-4-[2-hydroxy-3-(2-methoxyphenoxy)propyl]-1-piperazineacetamide]",Effect on ATXII-induced EADs and MAP prolongation,[1]; ATXII 20 nM,reversed
same,Effect on ATXII-induced EADs and MAP prolongation,"[1]; ATXII 20 nM, listed as Ranolazine",reduced or effectively abolished
same,Decrease of MAPS90,[1]; ATX-II plus 293B,8.3±0.1%
same,Decrease of MAPS90,[1]; ATX-II plus E-4031,24.5±0.1%
same,Effect on ATXII-induced VT,"[1]; ranolazine 30 μM, ATXII 20 nM",reduced or effectively abolished
same,Effect on ATXII-induced EADs and VT,[1],VTs were terminated
same,Effect on ATXII-induced EADs and VT,[1]; listed as Ranolazine,significantly suppressed EADs and VT
same,USP Solubility Class,[2]; solution pH 4.81,Freely Soluble
same,USP Solubility Class,[2]; solution pH 4.89,Soluble
same,USP Solubility Class,[2]; solution pH 4.90,Soluble
same,USP Solubility Class,[2]; solution pH 5.04,Soluble
same,USP Solubility Class,[2]; solution pH 5.35,Sparingly Soluble
same,USP Solubility Class,[2]; solution pH 5.82,Slightly soluble
same,USP Solubility Class,[2]; solution pH 6.46,Slightly soluble
same,USP Solubility Class,[2]; solution pH 6.73,Very slightly soluble
same,USP Solubility Class,[2]; solution pH 7.08,Very slightly soluble
same,USP Solubility Class,[2]; solution pH 7.59 (unbuffered water),Very slightly soluble
same,USP Solubility Class,[2]; solution pH 7.79,Very slightly soluble
same,USP Solubility Class,[2]; solution pH 12.66,Very slightly soluble
same,"APD50 ± SE, Epicardium","[3]; 1 μM, 2 mM [KCl]0",173 ± 2
same,"APD50 ± SE, M region","[3]; 1 μM, 2 mM [KCl]0",210.7 ± 13.53
same,"APD90 ± SE, Epicardium","[3]; 1 μM, 2 mM [KCl]0",232 ± 5.508
same,"APD90 ± SE, M region","[3]; 1 μM, 2 mM [KCl]0",280.3 ± 12.72
same,QTend,"[3]; 1 μM, 2 mM [KCl]0",311 ± 9.5
same,TDR,"[3]; 1 μM, 2 mM [KCl]0",28.33 ± 11.46
same,Tpeak-Tend,"[3]; 1 μM, 2 mM [KCl]0",35 ± 4.70
same,"APD50 ± SE, Epicardium","[3]; 1 μM, 4 mM [KCl]0",176.3 ± 12.25
same,"APD50 ± SE, M region","[3]; 1 μM, 4 mM [KCl]0",203.3 ± 9.621
same,"APD90 ± SE, Epicardium","[3]; 1 μM, 4 mM [KCl]0",213.8 ± 13.28
same,"APD90 ± SE, M region","[3]; 1 μM, 4 mM [KCl]0",254.3 ± 9.15
same,QTend,"[3]; 1 μM, 4 mM [KCl]0",263.5 ± 10.56
same,TDR,"[3]; 1 μM, 4 mM [KCl]0",26.75 ± 8.045
same,Tpeak-Tend,"[3]; 1 μM, 4 mM [KCl]0",34.5 ± 3.202
same,"APD50 ± SE, Epicardium","[3]; 5 μM, 2 mM [KCl]0",183.5 ± 1.5
same,"APD50 ± SE, M region","[3]; 5 μM, 2 mM [KCl]0",205.7 ± 7.881
same,"APD90 ± SE, Epicardium","[3]; 5 μM, 2 mM [KCl]0",252.5 ± 10.5
same,"APD90 ± SE, M region","[3]; 5 μM, 2 mM [KCl]0",289.7 ± 2.848
same,QTend,"[3]; 5 μM, 2 mM [KCl]0",319 ± 4.58
same,TDR,"[3]; 5 μM, 2 mM [KCl]0",15 ± 7
same,Tpeak-Tend,"[3]; 5 μM, 2 mM [KCl]0",33 ± 1.33
same,"APD50 ± SE, Epicardium","[3]; 5 μM, 4 mM [KCl]0",176.5 ± 11.85
same,"APD50 ± SE, M region","[3]; 5 μM, 4 mM [KCl]0",207.5 ± 8.627
same,"APD90 ± SE, Epicardium","[3]; 5 μM, 4 mM [KCl]0",219 ± 12.12
same,"APD90 ± SE, M region","[3]; 5 μM, 4 mM [KCl]0",258.3 ± 11.08
same,QTend,"[3]; 5 μM, 4 mM [KCl]0",274.5 ± 13.73
same,TDR,"[3]; 5 μM, 4 mM [KCl]0",36 ± 2.449
same,Tpeak-Tend,"[3]; 5 μM, 4 mM [KCl]0",37.75 ± 4.09
same,"APD50 ± SE, Epicardium","[3]; 10 μM, 2 mM [KCl]0",190 ± 2
same,"APD50 ± SE, M region","[3]; 10 μM, 2 mM [KCl]0",208.3 ± 3.48
same,"APD90 ± SE, Epicardium","[3]; 10 μM, 2 mM [KCl]0",265.5 ± 16.5
same,"APD90 ± SE, M region","[3]; 10 μM, 2 mM [KCl]0",305.3 ± 4.978
same,QTend,"[3]; 10 μM, 2 mM [KCl]0",329 ± 2.33
same,TDR,"[3]; 10 μM, 2 mM [KCl]0",23.5 ± 1.5
same,Tpeak-Tend,"[3]; 10 μM, 2 mM [KCl]0",36 ± 4.09
same,"APD50 ± SE, Epicardium","[3]; 10 μM, 4 mM [KCl]0",170.5 ± 12.03
same,"APD50 ± SE, M region","[3]; 10 μM, 4 mM [KCl]0",199 ± 9.083
same,"APD90 ± SE, Epicardium","[3]; 10 μM, 4 mM [KCl]0",216.5 ± 13.41
same,"APD90 ± SE, M region","[3]; 10 μM, 4 mM [KCl]0",260.3 ± 12.66
same,QTend,"[3]; 10 μM, 4 mM [KCl]0",277.8 ± 14.99
same,TDR,"[3]; 10 μM, 4 mM [KCl]0",30.75 ± 10.46
same,Tpeak-Tend,"[3]; 10 μM, 4 mM [KCl]0",39.25 ± 5.54
same,"APD50 ± SE, Epicardium","[3]; 50 μM, 2 mM [KCl]0",179 ± 1
same,"APD50 ± SE, M region","[3]; 50 μM, 2 mM [KCl]0",214.3 ± 6.333
same,"APD90 ± SE, Epicardium","[3]; 50 μM, 2 mM [KCl]0",276.5 ± 18.5
same,"APD90 ± SE, M region","[3]; 50 μM, 2 mM [KCl]0",325.5 ± 5.5
same,QTend,"[3]; 50 μM, 2 mM [KCl]0",343 ± 2.84
same,TDR,"[3]; 50 μM, 2 mM [KCl]0",35.5 ± 3.5
same,Tpeak-Tend,"[3]; 50 μM, 2 mM [KCl]0",41 ± 6.35
same,"APD50 ± SE, Epicardium","[3]; 50 μM, 4 mM [KCl]0",159.5 ± 12.82
same,"APD50 ± SE, M region","[3]; 50 μM, 4 mM [KCl]0",187.8 ± 11.21
same,"APD90 ± SE, Epicardium","[3]; 50 μM, 4 mM [KCl]0",218 ± 15.91
same,"APD90 ± SE, M region","[3]; 50 μM, 4 mM [KCl]0",257.5 ± 15.47
same,QTend,"[3]; 50 μM, 4 mM [KCl]0",279.3 ± 17.21
same,TDR,"[3]; 50 μM, 4 mM [KCl]0",32.5 ± 6.278
same,Tpeak-Tend,"[3]; 50 μM, 4 mM [KCl]0",41.25 ± 8.37
same,"APD50 ± SE, Epicardium","[3]; 100 μM, 2 mM [KCl]0",167.5 ± 0.5
same,"APD50 ± SE, M region","[3]; 100 μM, 2 mM [KCl]0",187.7 ± 4.978
same,"APD90 ± SE, Epicardium","[3]; 100 μM, 2 mM [KCl]0",293.5 ± 21.5
same,"APD90 ± SE, M region","[3]; 100 μM, 2 mM [KCl]0",345 ± 14.36
same,QTend,"[3]; 100 μM, 2 mM [KCl]0",376 ± 4.48
same,TDR,"[3]; 100 μM, 2 mM [KCl]0",35 ± 11
same,Tpeak-Tend,"[3]; 100 μM, 2 mM [KCl]0",55 ± 1.00
same,"APD50 ± SE, Epicardium","[3]; 100 μM, 4 mM [KCl]0",152.5 ± 14.44
same,"APD50 ± SE, M region","[3]; 100 μM, 4 mM [KCl]0",169 ± 10.5
same,"APD90 ± SE, Epicardium","[3]; 100 μM, 4 mM [KCl]0",220.5 ± 18.26
same,"APD90 ± SE, M region","[3]; 100 μM, 4 mM [KCl]0",247.8 ± 15.32
same,QTend,"[3]; 100 μM, 4 mM [KCl]0",284.5 ± 14.39
same,TDR,"[3]; 100 μM, 4 mM [KCl]0",23.75 ± 2.689
same,Tpeak-Tend,"[3]; 100 μM, 4 mM [KCl]0",40.5 ± 4.94
same,Arrhythmias in the wedge preparation,[3]; any concentration of ranolazine,No arrhythmias were observed
same,"Ranolazine-induced Torsade de Pointes, Spontaneous",[3]; 2 mM [K+]0,0/3
same,"Ranolazine-induced Torsade de Pointes, Stimulation-induced",[3]; 2 mM [K+]0,0/3
same,"Ranolazine-induced Torsade de Pointes, Spontaneous",[3]; 4 mM [K+]0,0/4
same,"Ranolazine-induced Torsade de Pointes, Stimulation-induced",[3]; 4 mM [K+]0,0/4
same,Early or delayed afterdepolarizations,"[3]; tissue or wedge preparations, any concentration of ranolazine",Neither early nor delayed afterdepolarizations were observed
